Assay type in all cases: in vivo
Assay [1] deals with barnyardgrass (Echinochloa crus-galli). Put plainly: Test A postemergence. The note with it: Echinochloa crus-galli, post-emergence, 240 h, 125 g ai/ha, postemergence; visual injury after approximately 10 d; 0 to 100 scale (0 no effect, 100 complete control); read-out: Plant response rating, Barnyardgrass. An outline of the steps: (§1)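 Compounds were formulated in a non-phytotoxic solvent mixture with surfactant and applied as a preemergence directed soil spray after seeding, or sprayed postemergence over plants 2 to 10 cm tall at the one- to two-leaf stage. Evaluation after about 10 d compared treated with untreated controls, using a scale from 0 (no effect) to 100 (complete control).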

The subject of assay [2] is ryegrass, Italian (Italian ryegrass, Lolium multiflorum). In words: Test A postemergence. The note with it: Lolium multiflorum, post-emergence, 240 h, 125 g ai/ha, postemergence; visual injury after approximately 10 d; 0 to 100 scale (0 no effect, 100 complete control); read-out: Plant response rating, Ryegrass, Italian. The gist of the method: as §1
For assay [3], the system named is giant foxtail (Setaria faberii). In words: Test A postemergence. To be noted: Setaria faberi, post-emergence, 240 h, 125 g ai/ha, postemergence; visual injury after approximately 10 d; 0 to 100 scale (0 no effect, 100 complete control); read-out: Plant response rating, Foxtail, Giant. An outline of the steps: as §1
Assay [4] concerns pigweed (Amaranthus retroflexus). In words: Test A postemergence. The note with it: Amaranthus retroflexus, post-emergence, 240 h, 125 g ai/ha, postemergence; visual injury after approximately 10 d; 0 to 100 scale (0 no effect, 100 complete control); read-out: Plant response rating, Pigweed. The gist of the method:
as §1

Assay [5] concerns barnyardgrass (Echinochloa crus-galli). In words: Test A preemergence. To be noted: Echinochloa crus-galli, pre-emergence, 240 h, preemergence, read-out: Plant response rating, Barnyardgrass; for pest or weed control at 125 g/ha: 125 g ai/ha, visual rating after approx. 10 d, 0 to 100 scale where 0 is no effect and 100 is complete control; for pest or weed control at 500 g/ha: 500 g ai/ha, 0 to 100 scale, 0 = no effect, 100 = complete control. The gist of the method:
as §1

Assay [6] deals with ryegrass, Italian (Italian ryegrass, Lolium multiflorum). In words: Test A preemergence. To be noted: Lolium multiflorum, pre-emergence, 240 h, preemergence, read-out: Plant response rating, Ryegrass, Italian; for pest or weed control at 125 g/ha: 125 g ai/ha, visual rating after approx. 10 d, 0 to 100 scale where 0 is no effect and 100 is complete control; for pest or weed control at 500 g/ha: 500 g ai/ha, 0 to 100 scale, 0 = no effect, 100 = complete control. The gist of the method: as §1

Another assay deals with Kochia (Kochia scoparia). In words: Test A preemergence. To be noted: Bassia scoparia, pre-emergence, 240 h, preemergence, read-out: Plant response rating, Kochia; for pest or weed control at 125 g/ha: 125 g ai/ha, visual rating after approx. 10 d, 0 to 100 scale where 0 is no effect and 100 is complete control; for pest or weed control at 500 g/ha: 500 g ai/ha, 0 to 100 scale, 0 = no effect, 100 = complete control. The gist of the method: as §1

In assay [7] the test system is giant foxtail (Setaria faberii). Put plainly: Test A preemergence. To be noted: Setaria faberi, pre-emergence, 240 h, preemergence, read-out: Plant response rating, Foxtail, Giant; for pest or weed control at 125 g/ha: 125 g ai/ha, visual rating after approx. 10 d, 0 to 100 scale where 0 is no effect and 100 is complete control; for pest or weed control at 500 g/ha: 500 g ai/ha, 0 to 100 scale, 0 = no effect, 100 = complete control. The gist of the method:
as §1

For assay [8], the system named is pigweed (Amaranthus retroflexus). In words: Test A preemergence. To be noted: Amaranthus retroflexus, pre-emergence, 240 h, preemergence, read-out: Plant response rating, Pigweed; for pest or weed control at 125 g/ha: 125 g ai/ha, visual rating after approx. 10 d, 0 to 100 scale where 0 is no effect and 100 is complete control; for pest or weed control at 500 g/ha: 500 g ai/ha, 0 to 100 scale, 0 = no effect, 100 = complete control.

In assay [9] the test system is ragweed (common ragweed, Ambrosia elatior). In words: Test A preemergence. The note with it: Ambrosia artemisiifolia, pre-emergence, 240 h, preemergence, read-out: Plant response rating, Ragweed; for pest or weed control at 125 g/ha: 125 g ai/ha, visual rating after approx. 10 d, 0 to 100 scale where 0 is no effect and 100 is complete control; for pest or weed control at 500 g/ha: 500 g ai/ha, 0 to 100 scale, 0 = no effect, 100 = complete control. An outline of the steps:
as §1

Assay [10] concerns sedge, umbrella (small-flower umbrella sedge, Cyperus difformis). Put plainly: Test B flooded paddy test. To be noted: Cyperus difformis, Flood, 250 g ai/ha; scale of 0 to 100 where 0 is no effect and 100 is complete control; read-out: Sedge, Umbrella plant response rating. An outline of the steps:
(§2)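 Evaluation by eye, against controls, occurred 13–15 d post-treatment in a greenhouse, using a 0 (no effect) to 100 (complete control) scale. Application was into the paddy water, 3 cm deep over the soil, on 2-leaf plants.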

Assay [11] deals with ducksalad (Heteranthera limosa). Put plainly: Test B flooded paddy test. To be noted: Heteranthera limosa, Flood, 250 g ai/ha; scale of 0 to 100 where 0 is no effect and 100 is complete control; read-out: Ducksalad plant response rating. An outline of the steps:
as §2

Assay [12] concerns barnyardgrass (Echinochloa crus-galli). Put plainly: Test B flooded paddy test. The note with it: Echinochloa crus-galli, Flood, 250 g ai/ha; scale of 0 to 100 where 0 is no effect and 100 is complete control; read-out: Barnyardgrass plant response rating. The gist of the method:
as §2

A further assay concerns rice (Oryra sativa). Put plainly: Test B flooded paddy test. To be noted: Oryza sativa, Flood, 250 g ai/ha; scale of 0 to 100 where 0 is no effect and 100 is complete control; read-out: Rice plant response rating. The gist of the method:
as §2

In the case of `Cc1ccc([C@H]2CNC(=O)[C@@H]2C(=O)Nc2cccc(F)c2F)c(F)c1` [Compound 720], the pest or weed control at 125 g/ha is 90% in assay [1]; 0% in [2]; 20% in assay [3]; 0% in assay [4]; 90% in assay [5]; 0% in [6]. Besides, the pest or weed control at 125 g/ha in the assay on Kochia (Kochia scoparia) is 20%; in [7], 60%; in assay [8] it was 0%; in [9] it was 0%. Moreover, the pest or weed control at 500 g/ha in [5] came out at 100%; in assay [6] it was 20%; in the assay on Kochia (Kochia scoparia) it was 70%; in assay [7] it was 90%; in [8], 0%; in [9], 80%. Also, the pest or weed control at 250 g/ha in assay [10] was found to be 0%; in [11], 100%; in assay [12] it was 30%; with rice (Oryra sativa), 0%.

In the case of `CN1C[C@H](c2ccc(C(F)(F)F)cc2)[C@@H](C(=O)Nc2ccccc2C(F)(F)F)C1=O` [Compound 726], the pest or weed control at 125 g/ha in assay [1] is 90%; in assay [2] it was 40%; in assay [3], 90%; in assay [4] it was 50%; in assay [5] it was 90%; in assay [6], 50%. Besides, the pest or weed control at 125 g/ha in the assay on Kochia (Kochia scoparia) worked out at 70%; in [7] it was 90%; in assay [8], 80%; in assay [9] it was 30%. For the same compound, the pest or weed control at 500 g/ha in assay [5] stood at 90%; in assay [6], 80%; with Kochia (Kochia scoparia), 90%; in assay [7], 90%; in assay [8] it was 90%; in assay [9], 50%. In addition, the pest or weed control at 250 g/ha in assay [10] is 0%; in assay [11], 100%; in [12], 55%; in the assay with rice (Oryra sativa), 0%.

On to `Cc1cc([C@H]2CNC(=O)[C@@H]2C(=O)Nc2ccc(F)cc2F)ccc1Br` [Compound 725], for which the pest or weed control at 125 g/ha in assay [1] was 70%; in assay [2], 0%; in assay [3], 0%; in assay [4] it was 0%; in assay [5], 90%; in assay [6], 0%. Besides, the pest or weed control at 125 g/ha came out at 0% in the assay with Kochia (Kochia scoparia), 90% in assay [7], 0% in [8] and 0% in assay [9]. Further, the pest or weed control at 500 g/ha in [5] came out at 90%; in assay [6], 20%; in the assay on Kochia (Kochia scoparia) it was 50%; in [7] it was 90%; in [8], 0%; in assay [9] it was 0%. Moreover, the pest or weed control at 250 g/ha in assay [10] came to 0%; in [11] it was 100%; in [12] it was 0%; in the assay with rice (Oryra sativa), 0%.

`Cc1cc([C@H]2CN(C)C(=O)[C@@H]2C(=O)Nc2ccc(F)c(F)c2F)ccc1F` [Compound 719]: the pest or weed control at 125 g/ha was determined as 90% in [1]; 50% in assay [2]; 90% in assay [3]; 50% in assay [4]; 90% in assay [5]; 70% in [6]. Moreover, the pest or weed control at 125 g/ha in the assay on Kochia (Kochia scoparia) stood at 70%; in [7], 90%; in [8] it was 50%; in assay [9], 20%. Besides, the pest or weed control at 500 g/ha in [5] worked out at 90%; in assay [6] it was 90%; with Kochia (Kochia scoparia), 80%; in assay [7], 90%; in assay [8], 90%; in assay [9] it was 70%. Besides, the pest or weed control at 250 g/ha in assay [10] worked out at 0%; in assay [11], 100%; in [12], 85%; in the assay with rice (Oryra sativa) it was 0%.

For the origin of these results see patent US12077503B2, “Substituted cyclic amides and their use as herbicides” (FMC CORPORATION, priority 2015, dated 2024).
